From patent US20240115557A1, “INHIBITORS OF RNA-GUIDED NUCLEASES AND USES THEREOF” (The Brigham and Women's Hospital, Inc., priority 2022, published 2024)

How the values were obtained:
[1] = molecular target: T1, SpCas9 (Streptococcus pyogenes serotype M1, UniProt Q99ZW2); test: Strand displacement assay (SDA) / cumulative activity assay (CAA), SpCas9 primary screen; assay type: biochemical; details: Primary Screen (150 min); for Normalized Z score 1: replicate 1; for Normalized Z score 2: replicate 2
T1 sequence (Q99ZW2 whole entry): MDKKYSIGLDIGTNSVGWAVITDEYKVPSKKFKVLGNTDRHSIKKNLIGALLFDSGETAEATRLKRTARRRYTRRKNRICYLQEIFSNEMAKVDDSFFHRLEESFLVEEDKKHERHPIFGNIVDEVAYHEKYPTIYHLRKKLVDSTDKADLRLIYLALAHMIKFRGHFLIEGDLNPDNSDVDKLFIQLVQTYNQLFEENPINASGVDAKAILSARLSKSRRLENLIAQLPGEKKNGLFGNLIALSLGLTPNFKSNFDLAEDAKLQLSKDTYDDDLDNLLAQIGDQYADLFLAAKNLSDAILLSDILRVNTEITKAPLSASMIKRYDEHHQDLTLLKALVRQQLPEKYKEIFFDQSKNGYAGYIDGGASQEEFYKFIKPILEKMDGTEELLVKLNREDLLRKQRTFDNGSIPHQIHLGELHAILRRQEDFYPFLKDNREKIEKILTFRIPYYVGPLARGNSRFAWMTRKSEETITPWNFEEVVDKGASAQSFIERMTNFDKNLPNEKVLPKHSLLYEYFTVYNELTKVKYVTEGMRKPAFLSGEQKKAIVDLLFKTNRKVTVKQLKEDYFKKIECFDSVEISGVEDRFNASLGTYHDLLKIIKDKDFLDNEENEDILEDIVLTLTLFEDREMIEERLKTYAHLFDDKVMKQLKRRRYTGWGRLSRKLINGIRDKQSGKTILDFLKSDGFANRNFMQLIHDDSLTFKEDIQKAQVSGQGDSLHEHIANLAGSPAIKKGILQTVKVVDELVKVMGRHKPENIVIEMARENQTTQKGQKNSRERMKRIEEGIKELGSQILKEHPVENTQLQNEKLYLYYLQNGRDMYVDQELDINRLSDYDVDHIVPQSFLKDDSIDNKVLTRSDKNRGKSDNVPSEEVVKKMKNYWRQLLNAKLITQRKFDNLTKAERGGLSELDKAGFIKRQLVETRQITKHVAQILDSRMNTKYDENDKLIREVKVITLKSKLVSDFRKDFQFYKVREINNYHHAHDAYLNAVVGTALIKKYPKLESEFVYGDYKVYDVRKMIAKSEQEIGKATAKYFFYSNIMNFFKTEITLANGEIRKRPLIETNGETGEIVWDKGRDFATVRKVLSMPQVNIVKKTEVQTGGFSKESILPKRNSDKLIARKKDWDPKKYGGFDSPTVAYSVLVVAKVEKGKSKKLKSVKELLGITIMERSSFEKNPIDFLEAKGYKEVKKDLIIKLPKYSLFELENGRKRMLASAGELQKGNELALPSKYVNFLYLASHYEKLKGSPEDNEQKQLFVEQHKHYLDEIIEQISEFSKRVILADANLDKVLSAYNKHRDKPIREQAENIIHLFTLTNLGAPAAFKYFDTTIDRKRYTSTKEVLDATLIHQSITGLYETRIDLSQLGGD
Experimental: Screening of inhibitors was via a high throughput pipeline, as depicted in FIG. 29. The first screening is via a strand displacement assay (SDA) for detecting nuclease activity (FIG. 27A, 28A). The Cpf1/Cas12 protein/DNA complex has a different structure from Cas9 and requires optimization of the potential fluorophore attachment sites (Yamano, T et al., Cell, 2016). (FIG. 28A). Next screened compounds are evaluated in an eGFP cell assay, and for eGFP dose. Those compounds are further narrowed via a HiBiT assay and finally evaluated in the surveyor assay. SAR evaluations are performed to arrive at lead compounds for further evaluations and variations. General methodology for the assays is as described in at [0253]-[0301] of U.S. Patent Application 62/831,143 filed Apr. 8, 2019, incorporated herein by reference.
The 3′ end of the displacing single-stranded DNA was labeled with a quencher. Following nuclease cleavage of the substrate, the 3′-labeled quenching DNA strand (present in excess) could outcompete the weakly held 3′ strand to anneal to the 5′ strand. The resulting FRET fluorescence quenching provides an optical readout for nuclease activity (FIG. 62A).
Typically, SpCas9: gRNA (1:1.2 ratio) RNP was pre-formed at 1 μM in Cas9 assay buffer (20 mM Tris-HCl, pH=7.5, 100 mM KCl, 5 mM MgCl2) for 5 min at 4° C. before diluting to 10 nM in Cas9 assay buffer (2× final concentration). 25 μL of the Cas9 2× stock was manually dispensed to a black 384-well plate (Corning 3575) using electronic pipette. […] Following this, pre-annealed Alexa-Fluor 647 labeled substrate and quencher were also diluted to 1 nM and 5 nM in Cas9 assay buffer, respectively (2× stock solution). Next, 25 μL of the substrate/quencher solution was added manually to each well of the Cas9-containing 384-well plates using an electronic pipette and was incubated at 37° C. for 2.5 h. Fluorescent signals were read with the microplate reader set to read Alexa-Fluor 647 fluorescence. Assay was performed similarly with SaCas9 and FnCas12a using the respective enzyme, gRNA, substrate, and quencher oligos. […]

[2] = molecular target: T1, SpCas9; test: eGFP disruption assay, SpCas9, U2OS.eGFP.PEST cells; assay type: cell-based; details: for Normalized Z rep1 / Z score Rep1: replicate 1; for SpCas9 eGFP disruption Rep1: replicate 1, raw readout; for Normalized Z rep2 / Z socre Rep2: replicate 2; for SpCas9 eGFP disruption Rep2: replicate 2, raw readout
Excerpt: In some embodiments, the secondary assay may be an EGFP disruption assay. In such assay, a quantitative human cell-based reporter assay that enables rapid quantitation of targeted nuclease activities is used to characterize off-target cleavage of Cas9-based RNA guided endonucleases. In this assay, the activities of nucleases targeted to a single integrated EGFP reporter gene can be quantified by assessing loss of fluorescence signal in human U2OS.EGFP cells caused by inactivating frameshift insertion/deletion (indel) mutations introduced by error prone non-homologous end-joining (NHEJ) repair of nuclease-induced double-stranded breaks (DSBs).
In one protocol, U2OS.EGFP cells harboring a single integrated copy of an EGFP-PEST fusion gene are cultured (see e.g., Reyon et al., Nat Biotech 30, 460-465 (2012), which is herein incorporated by reference in its entirety). For transfections, 200,000 cells are Nucleofected with gRNA expression plasmid and pJDS246 together with 30 ng of a Td-tomato-encoding plasmid using the SE Cell Line 4D-Nucleofector™ X Kit (Lonza) according to the manufacturer's protocol. Cells are analyzed 2 days post-transfection using a BD LSRII flow cytometer. Transfections for optimizing gRNA/Cas9 plasmid concentration are performed in triplicate and all other transfections are performed in duplicate. PCR amplification is used for sequence verification of endogenous human genomic sites. PCR reactions are performed using Phusion Hot Start II high-fidelity DNA polymerase (NEB). Loci are amplified using touchdown PCR (98° C., 10 s; 72-62° C., −1° C./cycle, 15s; 72° C., 30 s] 10 cycles, [98° C., 10s; 62° C., 15s; 72° C., 30 s] 25 cycles). Alternatively, PCR for other targets is performed with 35 cycles at a constant annealing temperature of 68° C. or 72° C., and 3% DMSO or IM betaine, if necessary. PCR products are analyzed on a QIAXCEL capillary electrophoresis system to verify both size and purity. Validated products are treated with ExoSap-IT (Affymetrix) and sequenced by the Sanger method (MGH DNA Sequencing Core) to verify each target site.
Primary and secondary screening. The primary screen assayed a selection of unique chemical scaffolds derived from commercially available compounds and known bioactive molecular libraries (Table 7). Auto-fluorescent compounds were removed by a counter screen. Overall, the CAA was used to assay 122,409 small molecules with over 2,500 unique chemical scaffolds (FIG. 64F, Table 7). Of these compounds, 547 were selected as hits (Z score >3 in both replicates) for testing in orthogonal cell-based secondary assays. Hits were tested in duplicate in an eGFP disruption assay, wherein U2OS.eGFP.PEST cells^33 transfected with SpCas9 plasmid and eGFP-targeting gRNA plasmid were incubated with 20 μM of the compounds. In this assay, any compound that inhibited SpCas9 would rescue the loss of eGFP fluorescence. Here, toxic and auto-fluorescent compounds with a high GFP signal in cells were removed as false positives. […] Next, Applicants tested the 15 compounds in a luminescence-based gain-of-signal HiBiT knock-in assay, which involves SpCas9-mediated homology-directed tagging of GAPDH with a short peptide that luminesces upon complementation with a subunit derived from nanoluciferase.^34 Complementarily, the eGFP-disruption assay is fluorescence-based and involves error-prone DNA repair. As a counter-screen to remove false positives caused by cell death (viability <80%), the cell viability was measured after incubation.
For SAR studies and dose-response studies, 300,000 U2OS.eGFP.PEST cells were nucleofected with 300 ng of SpCas9 plasmid (Addgene #43861) and 30 ng of eGFP-targeting gRNA plasmid (Addgene #47511)^33 using SE Cell Line 4D-Nucleofector X Kit (Lonza) following the pulse program of DN-100. For RNP-based genome editing, 10 pmol of SpCas9 (GenScript #Z03385) and 12 pmol of gRNA were mixed and incubated for 5 min. […]

| SMILES | Average Normalized Z score [1] | avg z score primary [1] | Normalized Z score 1 [1] | Normalized Z score 2 [1] | Normalized Z rep1 [2] | Z score Rep1 [2] | SpCas9 eGFP disruption Rep1 [2] | Normalized Z rep2 [2] | Z socre Rep2 [2] | SpCas9 eGFP disruption Rep2 [2] | Average Normalized Z score ([1]; average of replicates) |
| --- | --- | --- | --- | --- | --- | --- | --- | --- | --- | --- | --- |
| CCn1c(=O)c(C(=O)Nc2nccc(C)n2)c(O)c2ccccc21 [Compound G650-0193] | 0.21 | 11.65 | 0.19 | 0.23 | −0.05 | −0.45 | 63.431 | −0.43 | −6.43 | 55.676 |  |
| Cn1nc(-c2ccccc2F)c2cc(C(=O)Oc3ccc4cnccc4c3)sc21 [Compound G784-0099] | 0.07 | 7.48 | 0.06 | 0.09 | −0.35 | −3.62 | 69.21 | 0.01 | 0.21 | 76.066 |  |
| O=C(Nc1nc(-c2ccccc2)c(C(=O)c2ccccc2)s1)c1ccc2c(c1)OCCO2 [Compound G786-0335] | 0.04 | 4.14 | 0.04 | 0.04 | −0.08 | −0.79 | 74.347 | 0.09 | 2.13 | 77.667 |  |
| COc1ccc(-n2c(N(C(C)=O)C(C)=O)c(C#N)c3nc4ccccc4nc32)cc1 [Compound T0503-6223] |  | 14.21 | 0.16 | 0.16 |  |  |  |  |  |  | 0.16 |
| O=C(N/N=C/c1ccc(O)c(O)c1O)c1cccc(S(=O)(=O)Nc2ccccc2Cl)c1 [Compound T0506-5702] |  | 4.48 | 0.07 | 0.07 |  |  |  |  |  |  | 0.07 |
| Cc1ccc(C(=O)n2ncn(C)c2=S)cc1 [Compound T0510-3476] |  | 28.56 | 0.39 | 0.42 |  |  |  |  |  |  | 0.41 |
| O=C(CCC(=O)c1ccc(F)cc1)OC1CCOC1=O (centres unmarked) [Compound T0512-8635] |  | 4.05 | 0.04 | 0.04 |  |  |  |  |  |  | 0.04 |
| O=C(CSc1nnc2ccccn12)Nc1cc(C(=O)O)cc(C(=O)O)c1 [Compound T0513-0201] |  | 11.30 | 0.10 | 0.13 |  |  |  |  |  |  | 0.11 |
| CCOC(=O)C1CCCN(Cn2nnn(-c3ccc(OC)cc3)c2=S)C1 (centres unmarked) [Compound T0513-0218] |  | 3.45 | 0.04 | 0.03 |  |  |  |  |  |  | 0.04 |
| O=C(Nc1nnc(C2CC2)s1)c1ccc2ncsc2c1 [Compound T0514-1693] |  | 5.62 | 0.07 | 0.07 |  |  |  |  |  |  | 0.07 |
| O=C(O)c1cccc(NCC2SC(=S)NC2=O)c1 (centres unmarked) [Compound T0514-3358] |  | 4.79 | 0.32 | 0.27 |  |  |  |  |  |  | 0.30 |
| Oc1c(C(c2cccs2)N2CCCCC2)ccc2cccnc12 (centres unmarked) [Compound T0515-1927] |  | 10.34 | 0.70 | 0.67 |  |  |  |  |  |  | 0.68 |
| O=C(COC(=O)c1cc(O)c(O)c(O)c1)NC1CCCc2ccccc21 (centres unmarked) [Compound T0515-9025] |  | 4.00 | 0.26 | 0.23 |  |  |  |  |  |  | 0.25 |
| Cc1ccc(Cl)cc1NC(=O)C1=NCCN1 [Compound T0519-9012] |  | 5.06 | 0.08 | 0.12 |  |  |  |  |  |  | 0.10 |
| Cc1sc2nc3n(c(=O)c2c1-c1ccccc1)CCC3 [Compound T0520-0462] |  | 4.18 | 0.04 | 0.05 |  |  |  |  |  |  | 0.04 |
| O=C(O)CSc1nnc(NC2CCCCC2)s1 [Compound T5211003] |  | 4.50 | 0.05 | 0.05 |  |  |  |  |  |  | 0.05 |
| NC(=S)c1ccccn1 [Compound T5211106] |  | 3.58 | 0.04 | 0.04 |  |  |  |  |  |  | 0.04 |
| CCc1ccc(NC(=O)C(C#N)=Cc2cc(C#N)n(C)c2C)cc1 [Compound T5229649] |  | 4.90 | 0.06 | 0.08 |  |  |  |  |  |  | 0.07 |
| N=C1N=CC(=NNc2cc(C(=O)O)ccc2Cl)S1 [Compound T5253378] |  | 4.20 | 0.08 | 0.07 |  |  |  |  |  |  | 0.07 |
| CCC(CC)NC(=O)c1ccc2ncsc2c1 [Compound T5324509] |  | 7.80 | 0.12 | 0.09 |  |  |  |  |  |  | 0.10 |
| Cn1cccc1/C=C\C(=O)O [Compound T5365031] |  | 4.17 | 0.27 | 0.28 |  |  |  |  |  |  | 0.28 |
| O=C1NC(=S)C(=C2CCCC2)S1 [Compound T5441809] |  | 22.96 | 0.27 | 0.24 |  |  |  |  |  |  | 0.26 |
| O=C(O)C(S)=C/C=C\c1ccccc1 [Compound T5441826] |  | 4.20 | 0.03 | 0.06 |  |  |  |  |  |  | 0.05 |
